Experiments:
[1] = tested on: A549-ACE2 infected with SARS-CoV-2; experiment: morphology score (similarity to uninfected cells); higher = more like uninfected cells; details: 24 h
[2] = tested on: A549-ACE2 infected with SARS-CoV-2; experiment: SARS-CoV-2 infection rate relative to DMSO; higher = more infection; details: 24 h
[3] = tested on: U2OS; experiment: relative viability EC50 (midpoint between 100% and the lowest measured viability); higher = less toxic; details: 72 h
[4] = tested on: Caco-2; experiment: as above; details: 72 h
[5] = tested on: HepG2; experiment: as above; details: 72 h
[6] = tested on: Calu-3; experiment: as above; details: 72 h
[7] = tested on: A549-ACE2; experiment: phospholipidosis EC50; higher = less potent phospholipidosis inducer
[8] = tested on: Vero E6; experiment: cell viability relative to DMSO; higher = less toxic; details: 72 h
[9] = tested on: U2OS; experiment: as above; details: 72 h
[10] = tested on: Caco-2; experiment: as above; details: 72 h
[11] = tested on: HepG2; experiment: as above; details: 72 h
[12] = tested on: Calu-3; experiment: as above; details: 72 h
[13] = tested on: A549-ACE2 infected with SARS-CoV-2; experiment: cell count relative to DMSO; higher = less toxic; details: 24 h
[14] = tested on: A549-ACE2; experiment: drug-induced phospholipidosis relative to tamoxifen; higher = more phospholipidosis
[15] = tested on: Vero E6; experiment: drug sensitivity score (DSS) for viability; higher = more toxic; extreme values may be limits of the assay; details: 72 h
[16] = tested on: U2OS; experiment: as above; details: 72 h
[17] = tested on: Caco-2; experiment: as above; details: 72 h
[18] = tested on: HepG2; experiment: as above; details: 72 h
[19] = tested on: Calu-3; experiment: as above; details: 72 h
[20] = tested on: Vero E6; experiment: relative viability EC50 (midpoint between 100% and the lowest measured viability); higher = less toxic; details: 72 h

O=C(CCCN1CCC2(CC1)C(=O)N(Cc1cccc(F)c1)CN2c1ccccc1)c1ccc(F)cc1 [3'-fluorobenzylspiperone]
Details	SARS-CoV-2 infection rate [%]	cell count [%]	cell viability [%]	morphology score	phospholipidosis EC50 [µM]
[1], 0.1 µM	–	–	–	-0.13	–
[1], 0.3 µM	–	–	–	0.27	–
[1], 1 µM	–	–	–	0.46	–
[1], 3 µM	–	–	–	0.54	–
[2], 0.1 µM	99	–	–	–	–
[2], 0.3 µM	90	–	–	–	–
[2], 1 µM	87	–	–	–	–
[2], 3 µM	17	–	–	–	–
[7], 48 h	–	–	–	–	2.95
[8], 1 nM	–	–	103	–	–
[8], 10 nM	–	–	97.2	–	–
[8], 100 nM	–	–	93	–	–
[8], 1000 nM	–	–	95.1	–	–
[8], 10000 nM	–	–	62.9	–	–
[9], 1 nM	–	–	96.5	–	–
[9], 10 nM	–	–	102	–	–
[9], 100 nM	–	–	98.7	–	–
[9], 1000 nM	–	–	99.8	–	–
[9], 10000 nM	–	–	26.4	–	–
[10], 1 nM	–	–	90.9	–	–
[10], 10 nM	–	–	91.1	–	–
[10], 100 nM	–	–	100	–	–
[10], 1000 nM	–	–	101	–	–
[10], 10000 nM	–	–	27.9	–	–
[11], 1 nM	–	–	94.6	–	–
[11], 10 nM	–	–	98.1	–	–
[11], 100 nM	–	–	95.9	–	–
[11], 1000 nM	–	–	103	–	–
[11], 10000 nM	–	–	44.4	–	–
[12], 1 nM	–	–	101	–	–
[12], 10 nM	–	–	106	–	–
[12], 100 nM	–	–	90.6	–	–
[12], 1000 nM	–	–	101	–	–
[12], 10000 nM	–	–	29.7	–	–
[13], 0.1 µM	–	97	–	–	–
[13], 0.3 µM	–	102	–	–	–
[13], 1 µM	–	109	–	–	–
[13], 3 µM	–	107	–	–	–

Details	drug sensitivity score	relative viability EC50 [µM]
[3]	–	3.15
[4]	–	3.28
[5]	–	3.46
[6]	–	3.25
[15]	2.6	–
[16]	4.1	–
[17]	3.9	–
[18]	2.7	–
[19]	3.8	–

drug-induced phospholipidosis [%], [14]
Details	0.3 µM	0.833333 µM	3.33333 µM	6.66667 µM	10 µM	30 µM
24 h	3.51	-1.7	29	48.2	-29.1	-34.9
48 h	4.33	1.23	42.2	60	–	–
72 h	4.04	1.05	39.3	48.1	–	–

COC(=O)C1=C(C)NC(C)=C(C(=O)NCCCN2CCC(c3ccccc3)(c3ccccc3)CC2)C1c1ccc([N+](=O)[O-])cc1 (stereo not given) [SNAP-5089]
Details	SARS-CoV-2 infection rate [%]	cell count [%]	cell viability [%]	morphology score	phospholipidosis EC50 [µM]
[1], 0.1 µM	–	–	–	0.15	–
[1], 0.3 µM	–	–	–	-0.06	–
[1], 1 µM	–	–	–	0.43	–
[1], 3 µM	–	–	–	0.87	–
[2], 0.1 µM	92	–	–	–	–
[2], 0.3 µM	107	–	–	–	–
[2], 1 µM	84	–	–	–	–
[2], 3 µM	23	–	–	–	–
[7], 24 h	–	–	–	–	0.945
[7], 48 h	–	–	–	–	1.98
[7], 72 h	–	–	–	–	4.51
[8], 1 nM	–	–	94.8	–	–
[8], 10 nM	–	–	98.5	–	–
[8], 100 nM	–	–	97.4	–	–
[8], 1000 nM	–	–	91.8	–	–
[8], 10000 nM	–	–	74.3	–	–
[9], 1 nM	–	–	94.4	–	–
[9], 10 nM	–	–	98.7	–	–
[9], 100 nM	–	–	98.5	–	–
[9], 1000 nM	–	–	102	–	–
[9], 10000 nM	–	–	63.8	–	–
[10], 1 nM	–	–	95.4	–	–
[10], 10 nM	–	–	94.8	–	–
[10], 100 nM	–	–	92.9	–	–
[10], 1000 nM	–	–	106	–	–
[10], 10000 nM	–	–	63	–	–
[11], 1 nM	–	–	114	–	–
[11], 10 nM	–	–	108	–	–
[11], 100 nM	–	–	102	–	–
[11], 1000 nM	–	–	98.6	–	–
[11], 10000 nM	–	–	35.5	–	–
[12], 1 nM	–	–	88.4	–	–
[12], 10 nM	–	–	101	–	–
[12], 100 nM	–	–	92.3	–	–
[12], 1000 nM	–	–	107	–	–
[12], 10000 nM	–	–	12.1	–	–
[13], 0.1 µM	–	104	–	–	–
[13], 0.3 µM	–	100	–	–	–
[13], 1 µM	–	110	–	–	–
[13], 3 µM	–	123	–	–	–

Details	drug sensitivity score	relative viability EC50 [µM]
[5]	–	3.02
[6]	–	3.57
[15]	1.9	–
[16]	1.6	–
[17]	1.4	–
[18]	3.7	–
[19]	4.4	–

drug-induced phospholipidosis [%], [14]
Details	0.3 µM	0.833333 µM	3.33333 µM	6.66667 µM	10 µM	30 µM
24 h	5.01	19.9	66.9	74.6	62.5	47.6
48 h	7.57	17.4	77.4	93.7	96.6	–
72 h	6.91	11.4	64.3	94.9	116	–

COc1cc2c(NC3CCN(C(C)C)CC3)nc(N3CCC(F)(F)CC3)nc2cc1OCCCN1CCCC1 [UNC0642]
Details	SARS-CoV-2 infection rate [%]	cell count [%]	cell viability [%]	morphology score	phospholipidosis EC50 [µM]
[1], 0.3 µM	–	–	–	0.09	–
[1], 3 µM	–	–	–	0.76	–
[1], 10 µM	–	–	–	0.09	–
[1], 30 µM	–	–	–	-0.23	–
[2], 0.3 µM	87	–	–	–	–
[2], 3 µM	21	–	–	–	–
[2], 10 µM	13	–	–	–	–
[2], 30 µM	35	–	–	–	–
[7], 48 h	–	–	–	–	1.19
[7], 72 h	–	–	–	–	3.66
[8], 1 nM	–	–	96.6	–	–
[8], 10 nM	–	–	102	–	–
[8], 100 nM	–	–	91.6	–	–
[8], 1000 nM	–	–	108	–	–
[8], 10000 nM	–	–	105	–	–
[9], 1 nM	–	–	98.6	–	–
[9], 10 nM	–	–	95.4	–	–
[9], 100 nM	–	–	100	–	–
[9], 1000 nM	–	–	98.6	–	–
[9], 10000 nM	–	–	81.1	–	–
[10], 1 nM	–	–	101	–	–
[10], 10 nM	–	–	92.5	–	–
[10], 100 nM	–	–	104	–	–
[10], 1000 nM	–	–	106	–	–
[10], 10000 nM	–	–	99.7	–	–
[11], 1 nM	–	–	95.1	–	–
[11], 10 nM	–	–	103	–	–
[11], 100 nM	–	–	106	–	–
[11], 1000 nM	–	–	102	–	–
[11], 10000 nM	–	–	24.8	–	–
[12], 1 nM	–	–	93.9	–	–
[12], 10 nM	–	–	95.1	–	–
[12], 100 nM	–	–	95.3	–	–
[12], 1000 nM	–	–	96.6	–	–
[12], 10000 nM	–	–	32.9	–	–
[13], 0.3 µM	–	94	–	–	–
[13], 3 µM	–	122	–	–	–
[13], 10 µM	–	123	–	–	–
[13], 30 µM	–	89	–	–	–

Details	drug sensitivity score	relative viability EC50 [µM]
[3]	–	> 10
[4]	–	> 10
[5]	–	3.34
[6]	–	2.78
[15]	0	–
[16]	0.7	–
[17]	0	–
[18]	4	–
[19]	4.2	–
[20]	–	> 10

drug-induced phospholipidosis [%], [14]
Details	0.3 µM	0.833333 µM	3.33333 µM	6.66667 µM	10 µM	30 µM
24 h	4.47	9.42	29.6	35.7	32.6	5.01
48 h	8.91	12.1	34	48.6	51.8	0.44
72 h	9.24	11	36.7	55.6	62.4	–

CC/C(=C(\c1ccc(O)cc1)c1ccc(OCCN(C)C)cc1)c1ccccc1 [afimoxifene]
Details	SARS-CoV-2 infection rate [%]	cell count [%]	cell viability [%]	morphology score	phospholipidosis EC50 [µM]
[1], 0.3 µM	–	–	–	-0.03	–
[1], 3 µM	–	–	–	0.75	–
[1], 10 µM	–	–	–	0.83	–
[1], 30 µM	–	–	–	-0.14	–
[2], 0.3 µM	112	–	–	–	–
[2], 3 µM	47	–	–	–	–
[2], 10 µM	13	–	–	–	–
[2], 30 µM	68	–	–	–	–
[7], 24 h	–	–	–	–	1.78
[7], 48 h	–	–	–	–	2.82
[7], 72 h	–	–	–	–	3.95
[8], 1 nM	–	–	93.7	–	–
[8], 10 nM	–	–	98.9	–	–
[8], 100 nM	–	–	99.8	–	–
[8], 1000 nM	–	–	104	–	–
[8], 10000 nM	–	–	81.2	–	–
[9], 1 nM	–	–	96.8	–	–
[9], 10 nM	–	–	94.8	–	–
[9], 100 nM	–	–	102	–	–
[9], 1000 nM	–	–	97.2	–	–
[9], 10000 nM	–	–	77.6	–	–
[10], 1 nM	–	–	93	–	–
[10], 10 nM	–	–	91.2	–	–
[10], 100 nM	–	–	95.5	–	–
[10], 1000 nM	–	–	94	–	–
[10], 10000 nM	–	–	66.6	–	–
[11], 1 nM	–	–	94.6	–	–
[11], 10 nM	–	–	111	–	–
[11], 100 nM	–	–	90.7	–	–
[11], 1000 nM	–	–	112	–	–
[11], 10000 nM	–	–	54.3	–	–
[12], 1 nM	–	–	91.7	–	–
[12], 10 nM	–	–	103	–	–
[12], 100 nM	–	–	102	–	–
[12], 1000 nM	–	–	105	–	–
[12], 10000 nM	–	–	25.2	–	–
[13], 0.3 µM	–	99	–	–	–
[13], 3 µM	–	121	–	–	–
[13], 10 µM	–	117	–	–	–
[13], 30 µM	–	81	–	–	–

Details	drug sensitivity score	relative viability EC50 [µM]
[3]	–	> 10
[6]	–	3.52
[15]	0.3	–
[16]	1.2	–
[17]	2.5	–
[18]	1.8	–
[19]	3.7	–
[20]	–	> 10

drug-induced phospholipidosis [%], [14]
Details	0.3 µM	0.833333 µM	3.33333 µM	6.66667 µM	10 µM	30 µM
24 h	3.39	11.5	51	69.1	81.9	36.9
48 h	3.38	6.29	53.4	74.8	82.8	–
72 h	5.01	4.34	43.1	75.7	88.4	–

Cc1ccc(NC(=O)c2ccc(CN3CCN(C)CC3)cc2)cc1Nc1nccc(-c2cccnc2)n1 [imatinib]
Details	morphology score, 0.3 µM	morphology score, 3 µM	morphology score, 10 µM	morphology score, 30 µM	phospholipidosis EC50, 24 h [µM]	phospholipidosis EC50, 48 h [µM]	phospholipidosis EC50, 72 h [µM]
[1]	0.28	0.55	0.73	-0.03	–	–	–
[7]	–	–	–	–	6.11	13	10

Details	drug sensitivity score
[15]	0
[16]	0
[18]	2.4
[19]	0.1

From the supplement of paper PMC13380429
